Tests used:
Rattus norvegicus = experiment: Antiinflammatory activity in Wistar rat assessed as inhibition of carrageenan-induced hind paw edema at 100 mg/kg, po administered as gum arabic suspension 30 mins prior to carrageenin injection measured 3 hrs post-carrageenin injection; format: functional
[1] = Acute toxicity in po dosed mouse; format: organism-based; details: in vivo
Mus musculus = experiment: Hypnotic activity in ip dosed ddN mouse assessed as loss of righting reflex administered as gum arabic suspension measured within 60 mins; format: functional

Row | SMILES | inhibition in vivo at 100 mg/kg (Rattus norvegicus) | LD50 [1] | HD50 (Mus musculus)
1 | COc1cc(C(=O)N2CCCCC2)nn1-c1ccccc1 | 28.2% | – | –
2 | COc1cc(C(N)=O)nn1-c1ccccc1 | 34.3% | – | –
3 | CNC(=O)c1cc(OC)n(-c2ccccc2)n1 | 57.9% | – | –
4 | COc1cc(C(=O)N(C)C)nn1-c1ccccc1 | 47.5% | 385 mg/kg | 90 mg/kg
5 | CCCCNC(=O)c1cc(OC)n(-c2ccccc2)n1 | 20.6% | – | –
6 | COc1cc(C(=O)NC(C)C)nn1-c1ccccc1 | 24.8% | – | –
7 | COc1cc(C(=O)N2CCCC2)nn1-c1ccccc1 | 29.2% | – | –
8 | COc1cc(C(=O)N2CCOCC2)nn1-c1ccccc1 | 73.8% | – | –
9 | CCN(CC)CCNC(=O)c1cc(OC)n(-c2ccccc2)n1 | 54.1% | – | –
10 | COc1cc(C(=O)N2CCN(C)CC2)nn1-c1ccccc1 | 56.8% | – | –
11 | COc1cc(C(=O)N2CCN(CCO)CC2)nn1-c1ccccc1 | 10.3% | – | –
12 | COc1cc(C(=O)Nc2ccccc2C(=O)O)nn1-c1ccccc1 | 24.1% | – | –
13 | COc1cc(C(=O)Nc2cccc(C(F)(F)F)c2)nn1-c1ccccc1 | 20.9% | – | –
14 | COc1cc(C(=O)N(C)c2ccc(C)cc2)nn1-c1ccccc1 | 22.3% | – | –
15 | CCOc1cc(C(=O)N(C)C)nn1-c1ccccc1 | 65.8% | 330 mg/kg | 26 mg/kg
16 | CCOc1cc(C(=O)N2CCOCC2)nn1-c1ccccc1 | 35.4% | – | –
17 | CCCOc1cc(C(=O)N(C)C)nn1-c1ccccc1 | 26.2% | 320 mg/kg | 27 mg/kg
18 | CC(C)Oc1cc(C(=O)N(C)C)nn1-c1ccccc1 | 43.9% | 525 mg/kg | 49 mg/kg
19 | CCCOc1cc(C(=O)N2CCOCC2)nn1-c1ccccc1 | 23.5% | – | –
20 | CCCCOc1cc(C(N)=O)nn1-c1ccccc1 | 26.5% | 360 mg/kg | 94 mg/kg
21 | CCCCOc1cc(C(=O)NC)nn1-c1ccccc1 | 65% | 325 mg/kg | 48 mg/kg
22 | CCCCOc1cc(C(=O)NCC)nn1-c1ccccc1 | 0% | 400 mg/kg | 44 mg/kg
23 | CCCCOc1cc(C(=O)N(C)C)nn1-c1ccccc1 | 18.7% | 460 mg/kg | 33 mg/kg
24 | C=CCNC(=O)c1cc(OCCCC)n(-c2ccccc2)n1 | 4.4% | – | –

Row | SMILES | inhibition in vivo at 100 mg/kg (Rattus norvegicus) | LD50 [1] | HD50 (Mus musculus)
25 | CCCCOc1cc(C(=O)NCCC)nn1-c1ccccc1 | 51.2% | 650 mg/kg | 39 mg/kg
26 | CCCCOc1cc(C(=O)NCCO)nn1-c1ccccc1 | 61.2% | – | –
27 | CCCCNC(=O)c1cc(OCCCC)n(-c2ccccc2)n1 | 43.3% | 370 mg/kg | 70 mg/kg
28 | CCCCOc1cc(C(=O)N(CC)CC)nn1-c1ccccc1 | 44.1% | – | –
29 | CCCCOc1cc(C(=O)NC(C)C)nn1-c1ccccc1 | 15.8% | – | –
30 | CCCCOc1cc(C(=O)N2CCCC2)nn1-c1ccccc1 | 17.6% | – | –
31 | CCCCOc1cc(C(=O)N2CCCCC2)nn1-c1ccccc1 | 15.6% | – | –
32 | CCCCOc1cc(C(=O)N2CCOCC2)nn1-c1ccccc1 | 32.9% | – | –
33 | CCCCOc1cc(C(=O)NCCN(CC)CC)nn1-c1ccccc1 | 23.6% | – | –
34 | CCCCOc1cc(C(=O)NCCCN(C)C)nn1-c1ccccc1 | 29.8% | – | –
35 | CCCCOc1cc(C(=O)N2CCN(C)CC2)nn1-c1ccccc1 | 32.3% | – | –
36 | CCCCOc1cc(C(=O)N2CCN(CCO)CC2)nn1-c1ccccc1 | 41.3% | – | –
37 | CCCCOc1cc(C(=O)Nc2ccccc2C(=O)O)nn1-c1ccccc1 | 0% | – | –
38 | CCCCOc1cc(C(=O)N2CCN(C(=O)c3cc(OCCCC)n(-c4ccccc4)n3)CC2)nn1-c1ccccc1 | 0% | – | –
39 | CCCCCOc1cc(C(=O)N(C)C)nn1-c1ccccc1 | 20% | 420 mg/kg | 63 mg/kg
40 | CC(C)CCOc1cc(C(=O)N(C)C)nn1-c1ccccc1 | 25.3% | 350 mg/kg | 47 mg/kg
41 | CCCCOc1cc(C(=O)N(C)CCN(C)C)nn1-c1ccccc1 | 28.2% | – | –
42 | CCCCOc1cc(C(=O)N(C)CCN(CC)CC)nn1-c1ccccc1 | 29.5% | – | –
43 | CCCCOc1cc(C(=O)N2CCN(CCOC(C)=O)CC2)nn1-c1ccccc1 | 43.9% | – | –
44 | CCCCOc1cc(C(=O)N2CCN(CCOC(=O)CC)CC2)nn1-c1ccccc1 | 0% | – | –
45 | CCCCOc1cc(C(=O)N2CCN(CCOC(=O)c3ccccc3)CC2)nn1-c1ccccc1 | 5.9% | – | –
46 | Cc1c(N(C)C)c(=O)n(-c2ccccc2)n1C [AMINOPYRINE] | 66% | – | –
47 | CN1C(=O)NC(=O)C(C)(C2=CCCCC2)C1=O (stereo not drawn) [HEXOBARBITAL] | – | 745 mg/kg | 91 mg/kg
48 | CCCCC1C(=O)N(c2ccccc2)N(c2ccccc2)C1=O [PHENYLBUTAZONE] | 54.5% | – | –

From ChEMBL document CHEMBL3272267, “Synthesis and antiinflammatory and hypnotic activity of 5-alkoxy-3-(N-substituted carbamoyl)-1-phenylpyrazoles” (J Med Chem, 1977)
